Measurements published in ChEMBL document CHEMBL3526033, “Identification of human liver cytochrome P450 enzymes involved in the metabolism of SCH 530348 (Vorapaxar), a potent oral thrombin protease-activated receptor 1 antagonist” (Drug Metab Dispos, 2011).

Tests used:
Cytochrome P450 1A1 [1] = target: T1, Cytochrome P450 1A1 (Homo sapiens, UniProt P04798); assay: Activity of human recombinant CYP1A1 assessed as enzyme-mediated drug metabolism treated with 10 uM [14C]vorapaxar after 120 mins by LC-MS/MS analysis in presence of NADPH; assay type: ADME; details: 2 h
T1 sequence (P04798 whole entry): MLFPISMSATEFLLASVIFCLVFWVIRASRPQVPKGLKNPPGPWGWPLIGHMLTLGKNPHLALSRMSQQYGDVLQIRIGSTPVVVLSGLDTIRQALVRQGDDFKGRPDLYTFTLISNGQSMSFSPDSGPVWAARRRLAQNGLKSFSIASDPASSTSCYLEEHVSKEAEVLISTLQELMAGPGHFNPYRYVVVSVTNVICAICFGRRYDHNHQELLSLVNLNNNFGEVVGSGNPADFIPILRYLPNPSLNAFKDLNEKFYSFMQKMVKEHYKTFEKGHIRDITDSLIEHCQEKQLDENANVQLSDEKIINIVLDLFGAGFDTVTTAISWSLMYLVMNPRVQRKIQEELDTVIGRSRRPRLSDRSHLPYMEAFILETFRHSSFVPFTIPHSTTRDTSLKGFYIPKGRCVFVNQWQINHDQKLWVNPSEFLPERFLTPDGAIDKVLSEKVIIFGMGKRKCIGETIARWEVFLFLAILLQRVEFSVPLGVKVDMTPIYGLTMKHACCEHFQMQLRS

[2] = Drug metabolism in human liver S9 fraction treated with 10 uM [14C]vorapaxar after 120 mins by LC-MS/MS analysis; assay type: ADME, subcellular; details: s9, 2 h
Cytochrome P450 2J2 = target: T2, Cytochrome P450 2J2 (Homo sapiens, UniProt P51589); assay: Drug level in human liver microsomes assessed as CYP2J2-mediated drug metabolism at 25 uM after 120 mins by LC-MS/MS analysis; assay type: ADME; details: 2 h
T2 sequence (P51589 whole entry): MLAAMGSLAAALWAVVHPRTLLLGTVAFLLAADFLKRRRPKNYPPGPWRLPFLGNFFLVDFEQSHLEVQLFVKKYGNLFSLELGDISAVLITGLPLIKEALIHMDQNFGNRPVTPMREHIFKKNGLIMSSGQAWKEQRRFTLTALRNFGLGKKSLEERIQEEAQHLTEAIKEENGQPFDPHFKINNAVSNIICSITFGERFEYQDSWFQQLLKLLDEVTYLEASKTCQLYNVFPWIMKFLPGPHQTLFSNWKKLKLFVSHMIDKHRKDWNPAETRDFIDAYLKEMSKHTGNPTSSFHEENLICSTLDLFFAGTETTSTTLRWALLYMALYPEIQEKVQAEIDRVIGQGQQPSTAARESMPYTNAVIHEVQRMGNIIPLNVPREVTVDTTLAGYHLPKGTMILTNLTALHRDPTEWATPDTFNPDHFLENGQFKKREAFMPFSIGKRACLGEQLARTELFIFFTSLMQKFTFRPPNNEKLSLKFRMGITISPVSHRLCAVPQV

Cytochrome P450 3A5 [3] = target: T3, Cytochrome P450 3A5 (Homo sapiens, UniProt P20815); assay: Activity of human recombinant CYP3A5 assessed as enzyme-mediated drug metabolism treated with 10 uM [14C]vorapaxar after 120 mins by LC-MS/MS analysis in presence of NADPH; assay type: ADME; details: 2 h
Cytochrome P450 2C19 [4] = target: T4, Cytochrome P450 2C19 (Homo sapiens, UniProt P33261); assay: Activity of human recombinant CYP2C19 assessed as enzyme-mediated drug metabolism treated with 10 uM [14C]vorapaxar after 120 mins by LC-MS/MS analysis in presence of NADPH; assay type: ADME; details: 2 h
Cytochrome P450 1A2 [5] = target: T5, Cytochrome P450 1A2 (Homo sapiens, UniProt P05177); assay: Activity of human recombinant CYP1A2 assessed as enzyme-mediated drug metabolism treated with 10 uM [14C]vorapaxar after 120 mins by LC-MS/MS analysis in presence of NADPH; assay type: ADME; details: 2 h
T5 sequence (P05177 whole entry): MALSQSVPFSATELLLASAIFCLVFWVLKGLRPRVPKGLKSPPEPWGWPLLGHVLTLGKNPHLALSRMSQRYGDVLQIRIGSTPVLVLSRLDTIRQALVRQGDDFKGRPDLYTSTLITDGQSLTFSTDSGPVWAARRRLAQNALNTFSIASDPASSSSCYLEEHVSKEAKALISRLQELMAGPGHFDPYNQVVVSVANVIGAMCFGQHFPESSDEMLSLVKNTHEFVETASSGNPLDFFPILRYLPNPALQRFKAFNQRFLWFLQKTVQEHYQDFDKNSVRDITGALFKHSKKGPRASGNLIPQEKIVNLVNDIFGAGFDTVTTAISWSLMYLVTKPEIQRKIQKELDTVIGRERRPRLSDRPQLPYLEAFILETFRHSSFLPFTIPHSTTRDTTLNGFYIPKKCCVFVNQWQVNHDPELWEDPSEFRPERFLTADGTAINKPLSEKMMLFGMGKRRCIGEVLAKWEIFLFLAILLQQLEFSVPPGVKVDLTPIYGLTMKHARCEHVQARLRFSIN

Cytochrome P450 1A1 [6] = target: T1, Cytochrome P450 1A1; assay: Drug level assessed as human recombinant CYP1A1-mediated drug metabolism treated with 25 uM [14C]vorapaxar after 120 mins by LC-MS/MS analysis in presence of NADPH; assay type: ADME; details: recombinant enzyme, 2 h
Cytochrome P450 4F3 = target: T6, Cytochrome P450 4F3 (Homo sapiens, UniProt Q08477); assay: Drug level assessed as human recombinant CYP4F3A-mediated drug metabolism treated with 25 uM [14C]vorapaxar after 120 mins by LC-MS/MS analysis in presence of NADPH; assay type: ADME; details: recombinant enzyme, 2 h
T6 sequence (Q08477 whole entry): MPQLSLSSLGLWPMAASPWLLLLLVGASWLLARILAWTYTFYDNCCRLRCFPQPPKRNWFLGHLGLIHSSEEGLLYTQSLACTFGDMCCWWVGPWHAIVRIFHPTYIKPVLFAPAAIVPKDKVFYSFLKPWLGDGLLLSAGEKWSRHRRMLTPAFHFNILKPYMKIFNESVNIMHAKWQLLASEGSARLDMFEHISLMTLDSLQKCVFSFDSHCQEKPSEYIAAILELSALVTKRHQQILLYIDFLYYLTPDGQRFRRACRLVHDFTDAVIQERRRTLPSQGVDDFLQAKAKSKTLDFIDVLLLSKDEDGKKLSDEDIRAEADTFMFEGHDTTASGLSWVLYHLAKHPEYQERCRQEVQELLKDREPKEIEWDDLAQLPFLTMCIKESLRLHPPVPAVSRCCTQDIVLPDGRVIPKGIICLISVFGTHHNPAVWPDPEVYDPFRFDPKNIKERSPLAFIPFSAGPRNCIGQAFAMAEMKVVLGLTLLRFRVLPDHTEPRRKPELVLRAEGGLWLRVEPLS

Liver microsome [7] = assay: Drug level in human liver microsomes treated with 10 to 25 uM vorapaxar after 120 mins by LC-MS/MS analysis in presence of omeprazole; assay type: ADME; details: 2 h
Cytochrome P450 3A5 [8] = target: T3, Cytochrome P450 3A5; assay: Drug level assessed as human recombinant CYP3A5-mediated drug metabolism treated with 25 uM [14C]vorapaxar after 120 mins by LC-MS/MS analysis in presence of NADPH; assay type: ADME; details: recombinant enzyme, 2 h
Liver microsome [9] = assay: Drug level in human liver microsomes treated with 10 to 25 uM vorapaxar after 120 mins by LC-MS/MS analysis in presence of alpha-napthoflavone; assay type: ADME; details: 2 h
Cytochrome P450 2C19 [10] = target: T4, Cytochrome P450 2C19; assay: Drug level assessed as human recombinant CYP2C19-mediated drug metabolism treated with 25 uM [14C]vorapaxar after 120 mins by LC-MS/MS analysis in presence of NADPH; assay type: ADME; details: recombinant enzyme, 2 h
Liver microsome [11] = assay: Drug level in human liver microsomes treated with 10 to 25 uM vorapaxar after 120 mins by LC-MS/MS analysis in presence of CYP3A4-specific inhibitory antibody; assay type: ADME; details: 2 h
Liver microsome [12] = assay: Drug level in human liver microsomes treated with 10 to 25 uM vorapaxar after 120 mins by LC-MS/MS analysis in presence of sulfaphenazole; assay type: ADME; details: 2 h
Cytochrome P450 2C9 = Cytochrome P450 2C9 (Homo sapiens, UniProt P11712); assay: Activity of human recombinant CYP2C9 assessed as enzyme-mediated drug metabolism treated with 10 uM [14C]vorapaxar after 120 mins by LC-MS/MS analysis in presence of NADPH; assay type: ADME; details: 2 h
Liver microsome [13] = assay: Drug metabolism in human liver microsomes treated with 10 uM [14C]vorapaxar after 120 mins by LC-MS/MS analysis; assay type: ADME; details: 2 h
Cytochrome P450 3A4 [14] = target: T7, Cytochrome P450 3A4 (Homo sapiens, UniProt P08684); assay: Drug level in human liver microsomes assessed as CYP3A4-mediated drug metabolism at 25 uM after 120 mins by LC-MS/MS analysis; assay type: ADME; details: 2 h
Liver microsome [15] = assay: Drug level in human liver microsomes treated with 10 to 25 uM vorapaxar after 120 mins by LC-MS/MS analysis in presence of quinidine; assay type: ADME; details: 2 h
Cytochrome P450 3A4 [16] = target: T7, Cytochrome P450 3A4; assay: Activity of human recombinant CYP3A4 assessed as enzyme-mediated drug metabolism treated with 10 uM [14C]vorapaxar after 120 mins by LC-MS/MS analysis in presence of NADPH; assay type: ADME; details: 2 h
Cytochrome P450 1A2 [17] = target: T5, Cytochrome P450 1A2; assay: Drug level assessed as human recombinant CYP1A2-mediated drug metabolism treated with 25 uM [14C]vorapaxar after 120 mins by LC-MS/MS analysis in presence of NADPH; assay type: ADME; details: recombinant enzyme, 2 h

T3 sequence (P20815 whole entry): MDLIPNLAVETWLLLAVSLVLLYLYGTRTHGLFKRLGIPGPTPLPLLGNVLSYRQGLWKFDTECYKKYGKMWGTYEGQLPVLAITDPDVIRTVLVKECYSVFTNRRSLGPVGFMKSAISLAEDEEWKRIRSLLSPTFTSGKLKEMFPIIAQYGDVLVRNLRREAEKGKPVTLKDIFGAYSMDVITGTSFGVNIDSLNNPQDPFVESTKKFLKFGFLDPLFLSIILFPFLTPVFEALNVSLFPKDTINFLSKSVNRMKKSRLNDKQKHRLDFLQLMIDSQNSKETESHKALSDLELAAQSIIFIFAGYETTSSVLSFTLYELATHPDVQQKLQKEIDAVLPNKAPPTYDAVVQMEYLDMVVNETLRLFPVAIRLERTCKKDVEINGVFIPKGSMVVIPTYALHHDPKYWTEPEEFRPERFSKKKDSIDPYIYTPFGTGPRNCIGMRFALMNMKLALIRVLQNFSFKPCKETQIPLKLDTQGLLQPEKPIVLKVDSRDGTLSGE
T7 sequence (P08684 whole entry): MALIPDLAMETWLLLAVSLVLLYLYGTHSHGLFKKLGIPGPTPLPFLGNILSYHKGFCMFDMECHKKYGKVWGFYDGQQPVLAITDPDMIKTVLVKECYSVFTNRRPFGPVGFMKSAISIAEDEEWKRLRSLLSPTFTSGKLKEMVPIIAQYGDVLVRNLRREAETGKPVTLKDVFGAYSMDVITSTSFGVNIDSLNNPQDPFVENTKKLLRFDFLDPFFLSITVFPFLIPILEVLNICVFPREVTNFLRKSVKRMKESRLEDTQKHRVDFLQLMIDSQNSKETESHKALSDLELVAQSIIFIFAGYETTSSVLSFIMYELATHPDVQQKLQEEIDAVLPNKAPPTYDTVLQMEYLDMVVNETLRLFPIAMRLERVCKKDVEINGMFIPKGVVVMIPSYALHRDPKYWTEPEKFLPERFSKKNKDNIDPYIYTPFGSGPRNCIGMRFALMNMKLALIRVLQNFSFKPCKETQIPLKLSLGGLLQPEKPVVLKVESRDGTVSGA
T4 sequence (P33261 whole entry): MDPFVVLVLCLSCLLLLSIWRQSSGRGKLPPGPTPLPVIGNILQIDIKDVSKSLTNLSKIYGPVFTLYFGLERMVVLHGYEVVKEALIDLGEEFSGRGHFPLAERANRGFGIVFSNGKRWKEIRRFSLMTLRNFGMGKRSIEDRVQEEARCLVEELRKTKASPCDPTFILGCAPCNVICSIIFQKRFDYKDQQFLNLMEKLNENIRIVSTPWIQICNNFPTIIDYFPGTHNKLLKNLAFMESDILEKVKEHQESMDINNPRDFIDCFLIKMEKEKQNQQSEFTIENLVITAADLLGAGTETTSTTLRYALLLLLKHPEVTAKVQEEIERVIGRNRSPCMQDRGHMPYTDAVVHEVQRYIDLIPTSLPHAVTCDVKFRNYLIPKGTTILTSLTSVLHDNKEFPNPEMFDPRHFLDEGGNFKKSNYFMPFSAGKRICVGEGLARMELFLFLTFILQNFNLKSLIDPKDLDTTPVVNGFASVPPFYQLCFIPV
Cytochrome P450 2C9, sequence (P11712 whole entry): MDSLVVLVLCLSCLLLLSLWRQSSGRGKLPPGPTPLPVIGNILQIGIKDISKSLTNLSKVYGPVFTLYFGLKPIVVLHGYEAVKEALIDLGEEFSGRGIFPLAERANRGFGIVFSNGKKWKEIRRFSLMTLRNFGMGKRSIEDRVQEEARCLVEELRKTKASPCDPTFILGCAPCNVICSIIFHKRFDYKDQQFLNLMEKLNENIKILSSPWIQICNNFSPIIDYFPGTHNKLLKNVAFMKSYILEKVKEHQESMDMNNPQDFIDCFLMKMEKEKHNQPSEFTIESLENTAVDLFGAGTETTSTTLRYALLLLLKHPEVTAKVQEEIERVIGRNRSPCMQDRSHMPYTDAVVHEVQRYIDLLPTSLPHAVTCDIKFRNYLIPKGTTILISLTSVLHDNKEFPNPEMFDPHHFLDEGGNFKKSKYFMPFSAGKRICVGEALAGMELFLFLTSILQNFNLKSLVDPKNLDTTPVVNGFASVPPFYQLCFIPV

Compound recovery (Cytochrome P450 1A1 [1]): 1.96% | Compound recovery [2]: 3.42% | Drug metabolism (Cytochrome P450 2J2): metabolite_detected | Compound recovery (Cytochrome P450 3A5 [3]): 0.15% | Compound recovery (Cytochrome P450 2C19 [4]): 5.91% | Compound recovery (Cytochrome P450 1A2 [5]): 0.23% | Drug metabolism (Cytochrome P450 1A1 [6]): metabolite_detected | Drug metabolism (Cytochrome P450 4F3): metabolite_detected | Drug metabolism (Liver microsome [7]): metabolite_detected | Drug metabolism (Cytochrome P450 3A5 [8]): metabolite_detected | Drug metabolism (Liver microsome [9]): metabolite_detected | Drug metabolism (Cytochrome P450 2C19 [10]): metabolite_detected | Drug metabolism (Liver microsome [11]): metabolite_detected | Drug metabolism (Liver microsome [12]): metabolite_detected | Compound recovery (Cytochrome P450 2C9): below level of quantification | Compound recovery (Liver microsome [13]): 5.12% | Drug metabolism (Cytochrome P450 3A4 [14]): metabolite_detected | Drug metabolism (Liver microsome [15]): metabolite_detected | Compound recovery (Cytochrome P450 3A4 [16]): 22.1% | Drug metabolism (Cytochrome P450 1A2 [17]): metabolite_detected
Structure (SMILES): C[C@H]1OC(=O)[C@@H]2C[C@@H]3C[C@H](N)CC[C@H]3[C@H](/C=C/c3ccc(-c4cccc(F)c4)cn3)[C@H]12
